Experimental data reported in patent publication US20130217722A1, “NOVEL COMPOUND USEFUL FOR THE TREATMENT OF DEGENERATIVE AND INFLAMMATORY DISEASES” (priority 2012, published 2013).
pKi: −log10 of the molar value. “And” between values parts separate entries of the source, which are not always exact repeats. Equal values may be shown once.

Columns and labels:
[1] = biological target: T1, TYK2 (Homo sapiens, UniProt P29597); test: TYK2 Ki determination assay (kinase tracer binding); details: kinase tracer 236 binding; read-out: Ki against TYK2
T1 construct: purchased Carna Biosciences 09CBS-0983D
T1 sequence (P29597 whole entry): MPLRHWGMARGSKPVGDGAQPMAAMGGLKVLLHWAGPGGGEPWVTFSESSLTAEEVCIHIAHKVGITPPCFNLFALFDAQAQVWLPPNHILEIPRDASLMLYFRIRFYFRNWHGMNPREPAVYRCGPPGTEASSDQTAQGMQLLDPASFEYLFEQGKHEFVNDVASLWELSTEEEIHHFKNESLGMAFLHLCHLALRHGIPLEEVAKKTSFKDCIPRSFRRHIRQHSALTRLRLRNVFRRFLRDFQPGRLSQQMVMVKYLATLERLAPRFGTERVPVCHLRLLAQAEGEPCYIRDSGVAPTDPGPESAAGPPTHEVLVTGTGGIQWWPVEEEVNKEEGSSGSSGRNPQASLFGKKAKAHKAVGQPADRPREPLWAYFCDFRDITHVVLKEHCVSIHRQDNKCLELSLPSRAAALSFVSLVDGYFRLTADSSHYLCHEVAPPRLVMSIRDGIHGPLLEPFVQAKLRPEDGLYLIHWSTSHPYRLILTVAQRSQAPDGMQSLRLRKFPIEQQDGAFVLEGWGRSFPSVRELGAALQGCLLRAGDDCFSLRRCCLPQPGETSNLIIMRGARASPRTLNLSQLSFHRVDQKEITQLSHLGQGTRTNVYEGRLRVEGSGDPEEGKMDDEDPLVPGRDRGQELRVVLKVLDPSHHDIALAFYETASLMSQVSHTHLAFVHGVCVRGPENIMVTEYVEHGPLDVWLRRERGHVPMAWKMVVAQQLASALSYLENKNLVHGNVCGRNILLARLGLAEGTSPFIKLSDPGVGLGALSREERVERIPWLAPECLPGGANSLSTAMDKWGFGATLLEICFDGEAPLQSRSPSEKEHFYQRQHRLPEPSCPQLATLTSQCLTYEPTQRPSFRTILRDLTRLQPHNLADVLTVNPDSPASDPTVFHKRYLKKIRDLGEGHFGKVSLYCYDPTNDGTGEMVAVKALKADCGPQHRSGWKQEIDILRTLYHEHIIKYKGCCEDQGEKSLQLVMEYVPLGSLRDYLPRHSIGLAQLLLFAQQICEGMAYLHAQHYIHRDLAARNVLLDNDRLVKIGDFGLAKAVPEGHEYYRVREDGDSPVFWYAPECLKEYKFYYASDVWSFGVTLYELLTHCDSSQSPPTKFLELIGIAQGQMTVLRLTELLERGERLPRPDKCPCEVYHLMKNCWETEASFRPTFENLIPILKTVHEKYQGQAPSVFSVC
Description: TYK2 (Carna Biosciences, 09CBS-0983D) was used at a final concentration of 5 nM. The binding experiment was performed in 50 mM Hepes pH 7.5, 0.01% Brij-35, 10 mM MgCl2, 1 mM EGTA using 50 nM kinase tracer 236 (Invitrogen, PV5592) and 2 nM Eu-anti-GST (Invitrogen, PV5594) with varying compound concentrations. Detection of tracer was performed according to the manufacturers' procedure.

[2] = tested on: rat CIA model; test: Rat collagen induced arthritis (CIA) model; format: in vivo; details: p.o., therapeutic dosing day 16 to day 30
Description: Completed Freund's adjuvant (CFA) and incomplete Freund's adjuvant (IFA) were purchased from Difco. Bovine collagen type II (CII), lipopolysaccharide (LPS), and Enbrel was obtained from Chondrex (Isle d'Abeau, France); Sigma (P4252, L'Isle d'Abeau, France), Whyett (25 mg injectable syringe, France) Acros Organics (Palo Alto, Calif.), respectively. All other reagents used were of reagent grade and all solvents were of analytical grade.
Dark Agouti rats (male, 7-8 weeks old) were obtained from Harlan Laboratories (Maison-Alfort, France). Rats were kept on a 12 h light/dark cycle (0700-1900). Temperature was maintained at 22° C., and food and water were provided ad libitum.
One day before the experiment, CII solution (2 mg/mL) was prepared with 0.05 M acetic acid and stored at 4° C. Just before the immunization, equal volumes of adjuvant (IFA) and CII were mixed by a homogenizer in a pre-cooled glass bottle in an ice water bath. Extra adjuvant and prolonged homogenization may be required if an emulsion is not formed. […]
Arthritis is scored according to the method of Khachigian 2006, Lin et al 2007 and Nishida et al. 2004). […]
The area under the curve (AUC) from day 1 to day 14 was calculated for each individual rat. The AUC of each animal was divided by the average AUC obtained for the vehicle in the study from which the data on that animal was obtained and multiplied by 100 (i.e. the AUC was expressed as a percentage of the average vehicle AUC per study).
The clinical score difference for each animal was divided by the average clinical score difference obtained for the vehicle in the study from which the data on that animal was obtained and multiplied by 100 (i.e. the difference was expressed as a percentage of the average clinical score difference for the vehicle per study).
Clinically, body weight loss is associated with arthritis (Shelton et al., 2005; Rall, 2004; Walsmith et al., 2004). […] The change in body weight (%) after onset of arthritis was calculated as follows: […]

CCc1cc(C2=CCN(C(=O)CC#N)CC2)ccc1N(C)c1cc2c(cn1)ncn2C [Compound 1]
pKi [1]: 7.15 and 6.97
efficacy in rat CIA model ([2]; 1 mg/kg): statistically significant efficacy
efficacy in rat CIA model ([2]; 3 mg/kg): statistically significant efficacy
efficacy in rat CIA model ([2]; 10 mg/kg): statistically significant efficacy
